In PubChem BioAssay (NCI):
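Five compound concentrations were applied to cells in 96-well plates for 48 hours; endpoints were derived by simple linear interpolation of the resulting dose-response curve. GI50 marks 50% less growth. Definition used: TGI = concentration required for complete inhibition of growth.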

Experiments:
Test in all cases: DTP human tumour cell line panel, 48 h
A498 renal = test system: A498 renal
OVCAR-3 ovarian = test system: OVCAR-3 ovarian
M14 melanoma = test system: M14 melanoma
RPMI-8226 leukemia = test system: RPMI-8226 leukemia
CCRF-CEM leukemia = test system: CCRF-CEM leukemia
NCI-H460 lung = test system: NCI-H460 lung
SK-MEL-2 melanoma = test system: SK-MEL-2 melanoma
COLO 205 colon = test system: COLO 205 colon
HS 578T breast = test system: HS 578T breast
UACC-62 melanoma = test system: UACC-62 melanoma
MDA-MB-231 breast = test system: MDA-MB-231 breast
RXF 393 renal = test system: RXF 393 renal
T-47D breast = test system: T-47D breast
A549 NSCLC = test system: A549 NSCLC
SNB-19 CNS = test system: SNB-19 CNS
K-562 leukemia = test system: K-562 leukemia
SK-MEL-28 melanoma = test system: SK-MEL-28 melanoma
SK-MEL-5 melanoma = test system: SK-MEL-5 melanoma
CAKI-1 renal = test system: CAKI-1 renal
MOLT-4 leukemia = test system: MOLT-4 leukemia
MDA-MB-435 = test system: MDA-MB-435
SF-295 CNS = test system: SF-295 CNS
UO-31 renal = test system: UO-31 renal
HCT-116 colon = test system: HCT-116 colon
HOP-92 NSCLC = test system: HOP-92 NSCLC
MALME-3M melanoma = test system: MALME-3M melanoma
LOX IMVI melanoma = test system: LOX IMVI melanoma
U251 CNS = test system: U251 CNS
HCC-2998 colon = test system: HCC-2998 colon

## O=[N+]([O-])O.[Cu+2].[NH-]CC[NH-].[NH-]CC[NH-]
A498 renal
  GI50: > 10 µM
  TGI: > 10 µM
OVCAR-3 ovarian
  GI50: > 10 µM
  TGI: > 10 µM
M14 melanoma
  GI50: > 10 µM
  TGI: > 10 µM
RPMI-8226 leukemia
  GI50: > 10 µM
  TGI: > 10 µM
CCRF-CEM leukemia
  GI50: > 10 µM
  TGI: > 10 µM
NCI-H460 lung
  GI50: > 10 µM
  TGI: > 10 µM
SK-MEL-2 melanoma
  GI50: > 10 µM
  TGI: > 10 µM
COLO 205 colon
  GI50: > 10 µM
  TGI: > 10 µM
HS 578T breast
  GI50: > 10 µM
  TGI: > 10 µM
UACC-62 melanoma
  GI50: > 10 µM
  TGI: > 10 µM
MDA-MB-231 breast
  GI50: > 10 µM
  TGI: > 10 µM
RXF 393 renal
  GI50: > 10 µM
  TGI: > 10 µM
T-47D breast
  GI50: > 10 µM
  TGI: > 10 µM
A549 NSCLC
  GI50: > 10 µM
  TGI: > 10 µM
SNB-19 CNS
  GI50: > 10 µM
  TGI: > 10 µM
K-562 leukemia
  GI50: > 10 µM
  TGI: > 10 µM
SK-MEL-28 melanoma
  GI50: > 10 µM
  TGI: > 10 µM
SK-MEL-5 melanoma
  GI50: > 10 µM
  TGI: > 10 µM
CAKI-1 renal
  GI50: > 10 µM
  TGI: > 10 µM
MOLT-4 leukemia
  GI50: > 10 µM
  TGI: > 10 µM
MDA-MB-435
  GI50: > 10 µM
  TGI: > 10 µM
SF-295 CNS
  GI50: > 10 µM
  TGI: > 10 µM
UO-31 renal
  GI50: > 10 µM
  TGI: > 10 µM
HCT-116 colon
  GI50: > 10 µM
  TGI: > 10 µM
HOP-92 NSCLC
  GI50: > 10 µM
  TGI: > 10 µM
MALME-3M melanoma
  GI50: > 10 µM
  TGI: > 10 µM
LOX IMVI melanoma
  GI50: > 10 µM
  TGI: > 10 µM
U251 CNS
  GI50: > 10 µM
  TGI: > 10 µM
HCC-2998 colon
  GI50: > 10 µM
  TGI: > 10 µM
